Values quoted from earlier work in patent US6673333B1, “Functional MRI agents for cancer imaging” (Research Corporation Technologies, Inc., priority 2000, dated 2004).

What was measured:
[1] = thermodynamic stability of the Gd(III) chelate complex
[2] = at physiological pH

SMILES	stability constant (K), formation constant, logK [1]	dissociation kinetics [2]
O=C([O-])CN(CCN(CC(=O)[O-])CC(=O)[O-])CCN(CC(=O)[O-])CC(=O)[O-].[Gd+3] [Gd(DTPA)^2−]	22.4	–
O=C([O-])CN1CCN(CC(=O)[O-])CCN(CC(=O)O)CCN(CC(=O)[O-])CC1.[Gd+3] [Gd-DOTA]	28.5	very slow
